Measured values: patent US20210137117A1, “HERBICIDAL MIXTURES” (Bayer Aktiengesellschaft, priority 2017, published 2021)
Where “and” joins values, the source holds several entries; their conditions need not be identical. Equal values may be shown once.

Assays:
Assay in all cases: Pre-emergence action against weeds (greenhouse)
Format in all cases: in vivo
[1] = tested on: TRZAS (Triticum aestivum)
Excerpt: (§1) Depending on the trial conditions, the soil of the standard field soil is sterile or not sterile.
(§2) The amount of water used for spray application was 300l/ha.
TRZAS (Triticum aestivum)—Wheat, spring
(§3) Insofar as herbicidal effects of the compositions according to the invention compared to mixtures of the prior art or compared to components applied individually against economically important mono- and dicotyledonous harmful plants were the centre of attention, the synergistic herbicidal activities were calculated using Colby's formula (cf. S. R. Colby; Weeds 15 (1967), 20-22): […]

PAPRH (Papaver rhoeas) = tested on: PAPRH (Papaver rhoeas)
Excerpt: as §1, §2
PAPRH (Papaver rhoeas)—Poppy, common
as §3

[2] = tested on: VERHE (Veronica hederaefolia)
Excerpt: as §1, §2
VERHE (Veronica hederaefolia)—Speedwell, iveleaf
as §3

[3] = tested on: ALOMY—sensitive (Alopecurus myosuroides)
Excerpt: as §1, §2
ALOMY—sensitive (Alopecurus myosuroides) sensitive to customary herbicidally active compounds.
as §3

[4] = tested on: ALOMY—resistant (Alopecurus myosuroides)
Excerpt: as §1, §2
ALOMY—resistant (Alopecurus myosuroides) resistant to herbicidally active compounds of the HRAC groups A and B; population mixture of field origin having increased metabolic resistance (IMR) and some target site resistance (TSR).
as §3

AVEFA (Avenafatua) = tested on: AVEFA (Avenafatua)
Excerpt: as §1, §2
AVEFA (Avenafatua)—Wild oat
as §3

[5] = tested on: SORHA (Sorghum halepense)
Excerpt: as §1, §2
SORHA (Sorghum halepense)—Johnsongrass
as §3

BRSNW (Brassica napus) = tested on: BRSNW (Brassica napus)
Excerpt: as §1, §2
BRSNW (Brassica napus)—Rape, winter
as §3

CENCY (Centaurea cyanus) = tested on: CENCY (Centaurea cyanus)
Excerpt: as §1, §2
CENCY (Centaurea cyanus)—Cornflower
as §3

HORVS (Hordeum vulgare) = tested on: HORVS (Hordeum vulgare)
Excerpt: as §1, §2
HORVS (Hordeum vulgare)—Barley, spring
as §3

[6] = tested on: LOLRI—sensitive (Lolium rigidum)
Excerpt: as §1, §2
LOLRI—sensitive (Lolium rigidum) sensitive to customary herbicidally active compounds.
as §3

EMEAU (Emex australis) = tested on: EMEAU (Emex australis)
Excerpt: as §1, §2
EMEAU (Emex australis)—Cathead
as §3

[7] = tested on: RAPRA (Raphanus raphanistrum)
Excerpt: as §1, §2
RAPRA (Raphanus raphanistrum)—Charlock, jointed
as §3

BROST (Bromus sterilis) = tested on: BROST (Bromus sterilis)
Excerpt: as §1, §2
BROST (Bromus sterilis)—Bromegrass, barren
as §3

[8] = tested on: LOLRI—resistant (Lolium rigidum)
Excerpt: as §1, §2
LOLRI—resistant (Lolium rigidum) resistant to herbicidally active compounds of the HRAC groups A and B; population mixture of field origin having increased metabolic resistance (IMR) and some target site resistance (TSR).
as §3

`Cc1ccccc1CO[C@@H]1C[C@@]2(C(C)C)CC[C@]1(C)O2` (racemic) [Cinmethylin, (+/−)-2-exo-(2-methylbenzyloxy)-1-methyl-4-isopropyl-7-oxabicyclo[2.2.1]heptane] gave a herbicidal action ([1]; 10 g AS/ha) of 0%, a herbicidal action ([1]; 25 g AS/ha) of 0% and a herbicidal action ([1]; 50 g AS/ha) of 30%. The herbicidal action ([1]; 100 g AS/ha) was 40%, the herbicidal action ([1]; 250 g AS/ha) was 75% and the herbicidal action ([1]; 500 g AS/ha) was 90%. For the same compound, the “Herbicidal action (crop damage) TRZAS” value ([1]; pre-emergence, dose 50 g AS/ha) was 30, the herbicidal action (PAPRH (Papaver rhoeas); 10 g AS/ha) was 0% and the herbicidal action (PAPRH (Papaver rhoeas); 25 g AS/ha) was 0%. For the same compound, the herbicidal action (PAPRH (Papaver rhoeas); 50 g AS/ha) was 0%, the herbicidal action ([2]; 10 g AS/ha) was 0% and the herbicidal action ([2]; 25 g AS/ha) was 0%. For the same compound, the herbicidal action ([2]; 50 g AS/ha) was 0%, the herbicidal action ([2]; 100 g AS/ha) was 0% and the herbicidal action ([2]; 250 g AS/ha) was 0%. For the same compound, the herbicidal action ([2]; 500 g AS/ha) was 0%, the “Herbicidal action VERHE” value ([2]; pre-emergence, dose 50 g AS/ha) was 0 and the herbicidal action ([3]; 10 g AS/ha) was 0%. The herbicidal action ([3]; 25 g AS/ha) was 80%, the herbicidal action ([3]; 50 g AS/ha) was 80% and the herbicidal action ([3]; 100 g AS/ha) was 90%. For the same compound, the herbicidal action ([3]; 250 g AS/ha) was 100%, the herbicidal action ([3]; 500 g AS/ha) was 100% and the “Herbicidal action ALOMY sensitive” value ([3]; pre-emergence, dose 50 g AS/ha) was 80. The herbicidal action ([4]; 10 g AS/ha) was 0%, the herbicidal action ([4]; 25 g AS/ha) was 60% and the herbicidal action ([4]; 50 g AS/ha) was 70%. It also gave a herbicidal action ([4]; 100 g AS/ha) of 70%, a herbicidal action ([4]; 250 g AS/ha) of 90% and a herbicidal action ([4]; 500 g AS/ha) of 100%. The “Herbicidal action ALOMY resistant” value ([4]; pre-emergence, dose 50 g AS/ha) was 70, the herbicidal action (AVEFA (Avenafatua); 10 g AS/ha) was 0% and the herbicidal action (AVEFA (Avenafatua); 25 g AS/ha) was 0%. It also gave a herbicidal action (AVEFA (Avenafatua); 50 g AS/ha) of 0%, a herbicidal action (AVEFA (Avenafatua); 100 g AS/ha) of 25% and a herbicidal action (AVEFA (Avenafatua); 250 g AS/ha) of 50%. For the same compound, the herbicidal action (AVEFA (Avenafatua); 500 g AS/ha) was 70%, the “Herbicidal action AVEFA” value (AVEFA (Avenafatua); pre-emergence, dose 50 g AS/ha) was 0 and the herbicidal action ([5]; 50 g AS/ha) was 65%. It also gave a herbicidal action ([5]; 100 g AS/ha) of 70%, a herbicidal action ([5]; 250 g AS/ha) of 80% and a herbicidal action ([5]; 500 g AS/ha) of 100%. For the same compound, the “Herbicidal action SORHA” value ([5]; pre-emergence, dose 50 g AS/ha) was 65, the herbicidal action (BRSNW (Brassica napus); 10 g AS/ha) was 0% and the herbicidal action (BRSNW (Brassica napus); 25 g AS/ha) was 0%. The herbicidal action (BRSNW (Brassica napus); 50 g AS/ha) was 0%, the herbicidal action (BRSNW (Brassica napus); 100 g AS/ha) was 0% and the herbicidal action (BRSNW (Brassica napus); 250 g AS/ha) was 0%. The herbicidal action (BRSNW (Brassica napus); 500 g AS/ha) was 10%, the “Herbicidal action BRSNW” value (BRSNW (Brassica napus); pre-emergence, dose 50 g AS/ha) was 0 and the herbicidal action (CENCY (Centaurea cyanus); 50 g AS/ha) was 0%. For the same compound, the herbicidal action (CENCY (Centaurea cyanus); 100 g AS/ha) was 0%, the herbicidal action (CENCY (Centaurea cyanus); 250 g AS/ha) was 30% and the herbicidal action (CENCY (Centaurea cyanus); 500 g AS/ha) was 80%. For the same compound, the “Herbicidal action CENCY” value (CENCY (Centaurea cyanus); pre-emergence, dose 50 g AS/ha) was 0, the herbicidal action (HORVS (Hordeum vulgare); 10 g AS/ha) was 0% and the herbicidal action (HORVS (Hordeum vulgare); 25 g AS/ha) was 0%. The herbicidal action (HORVS (Hordeum vulgare); 50 g AS/ha) was 30%, the herbicidal action (HORVS (Hordeum vulgare); 100 g AS/ha) was 40% and the herbicidal action (HORVS (Hordeum vulgare); 250 g AS/ha) was 65%. The herbicidal action (HORVS (Hordeum vulgare); 500 g AS/ha) was 70%, the “Herbicidal action (crop damage) HORVS” value (HORVS (Hordeum vulgare); pre-emergence, dose 50 g AS/ha) was 30 and the herbicidal action ([6]; 10 g AS/ha) was 0%. The herbicidal action ([6]; 25 g AS/ha) was 70%, the herbicidal action ([6]; 50 g AS/ha) was 90% and the herbicidal action ([6]; 100 g AS/ha) was 100%. For the same compound, the herbicidal action ([6]; 250 g AS/ha) was 100%, the herbicidal action ([6]; 500 g AS/ha) was 100% and the “Herbicidal action LOLRI sensitive” value ([6]; pre-emergence, dose 50 g AS/ha) was 90. It also gave a herbicidal action (EMEAU (Emex australis); 10 g AS/ha) of 0%, a herbicidal action (EMEAU (Emex australis); 25 g AS/ha) of 0% and a herbicidal action (EMEAU (Emex australis); 50 g AS/ha) of 0%. It also gave a herbicidal action (EMEAU (Emex australis); 100 g AS/ha) of 0%, a herbicidal action (EMEAU (Emex australis); 250 g AS/ha) of 0% and a herbicidal action (EMEAU (Emex australis); 500 g AS/ha) of 0%. The “Herbicidal action EMEAU” value (EMEAU (Emex australis); pre-emergence, dose 50 g AS/ha) was 0, the herbicidal action ([7]; 10 g AS/ha) was 0% and the herbicidal action ([7]; 25 g AS/ha) was 0%. It also gave a herbicidal action ([7]; 50 g AS/ha) of 0%, a herbicidal action ([7]; 100 g AS/ha) of 0% and a herbicidal action ([7]; 250 g AS/ha) of 30%. The herbicidal action ([7]; 500 g AS/ha) was 40%, the “Herbicidal action RAPRA” value ([7]; pre-emergence, dose 50 g AS/ha) was 0 and the herbicidal action (BROST (Bromus sterilis); 10 g AS/ha) was 0%. For the same compound, the herbicidal action (BROST (Bromus sterilis); 25 g AS/ha) was 20%, the herbicidal action (BROST (Bromus sterilis); 50 g AS/ha) was 50% and the herbicidal action (BROST (Bromus sterilis); 100 g AS/ha) was 100%. For the same compound, the herbicidal action (BROST (Bromus sterilis); 250 g AS/ha) was 100%, the herbicidal action (BROST (Bromus sterilis); 500 g AS/ha) was 100% and the “Herbicidal action BROST” value (BROST (Bromus sterilis); pre-emergence, dose 50 g AS/ha) was 50. The herbicidal action ([8]; 10 g AS/ha) was 0%, the herbicidal action ([8]; 25 g AS/ha) was 70% and the herbicidal action ([8]; 50 g AS/ha) was 85% and 100%. For the same compound, the herbicidal action ([8]; 100 g AS/ha) was 100%, the herbicidal action ([8]; 250 g AS/ha) was 100% and the herbicidal action ([8]; 500 g AS/ha) was 100%. For the same compound, the “Herbicidal action LOLRI resistant” value ([8]; pre-emergence, dose 50 g AS/ha) was 100.
